Source: patent publication US9809640B2, “ApoE peptide dimers and uses thereof” (priority 2010, dated 2017)
Positions of bridges follow the written chain, without caps; N, C: chain ends. Chains are numbered I, II in the order given.

How the values were obtained:
normal B-cells = experiment: Cytotoxicity on normal B-cells from volunteers; type: cell-based, human
[1] = Cytotoxicity on normal B-cells from volunteers; type: cell-based, human; settings: human, normal B-cells from volunteers
[2] = test system: MDA-MB-231 breast cancer cells; type: cell-based; settings: MB231, ~24 hours
Procedure: (§1) FIG. 14A: Dose response curve of COG445 on proliferation of U87 (open circles) and MDA-MB-231 (filled circles) cells as measured by MTT reduction. FIG. 14B: Dose response curve of COG445 on proliferation of MDA-MB-231 cells as measured by cell count.
Next, we examined the potency of an ApoE peptide dimer versus the monomeric form on proliferation of the MDA-MB-231 breast cancer cell line. MDA-MB-231 cells were treated with various concentrations of either COG435 (monomer; SEQ ID NO: 90) or COG493 (a BMOE-linked dimer of COG 435) peptides for 48 hours. Following peptide treatment, cells were quantified using a MTT assay.
(§2) Because COG445 inhibited Akt activation and downstream signaling, we examined the effects of COG445 on cellular proliferation. Adherent MB231 and U87 cells were grown for ˜24 hours in the presence of COG445 and cellular proliferation was measured by MTT reduction. […] Furthermore, COG445 inhibited MB231 cellular proliferation as determined by cell count (FIG. 14B). Approximately 6×10^4 cells were plated in growth media (RPMI+10% FBS) for 24-hours with increasing concentrations of COG445. […] However at concentrations ≧1 μM COG445, there appears to be a loss of cells. This is partially explained by decreased proliferation, although it is possible that the rate of cellular degradation was increased in the presence of COG445.

BV2 microglia cells = experiment: LPS-induced nitric oxide production in BV2 microglia cells; type: cell-based
MDA-MB-231 cells = experiment: MB231 cellular proliferation by cell count; type: cell-based
Procedure: as §1, §2

Akt = experiment: EGF-induced Akt activation, Western blot; type: cell-based
Description: FIGS. 10A-10B. […] FIG. 10A: Western blot analysis of U87 glioblastoma cells exposed to the indicated concentrations of COG445 peptide in the presence of EGF. The blot is probed with antibodies for the activated EGF receptor (P-EGFR), total EGF receptor, activated PDK1 (P-PDK1), and total PDK1. FIG. 10B: Western blot and densitometry analysis of Akt activation induced by EGF in U87 cells in the presence of increasing concentrations of COG445.
Akt signaling is often dysregulated in cancers thereby promoting cellular survival and proliferation. […] Given the effect of ApoE peptides on other inflammatory pathologies, we investigated the effect of an ApoE peptide dimer on Akt signaling in breast and brain cancer cells. A disulfide dimer of COG112 (SEQ ID NO: 1) was prepared as described in Example 1 (COG445). Adherent breast cancer cells, MDA-MB-231 (MB231), or glioblastoma cells, U87-MG (U87), were serum starved overnight and then exposed to COG445 for 2 hours before stimulating with epidermal growth factor (EGF) for 5 minutes. […] EGFR activation results in the activation of the PI3K/Akt signaling pathway, which is mediated by PDK1 activation.

## I: Ac-RQIKIWFQNRRMKWKKCLRVRLASHLRKLRKRLL-NH2 / II: Ac-RQIKIWFQNRRMKWKKCLRVRLASHLRKLRKRLL-NH2 (disulfide I:17-II:17) [COG445, COG112-C-C-COG112]
Normal B-cells
  EC50 normal B-cells relative to CLL cells: ~200 fold
[1]
  EC50 at 72 h: > 10000 nM
[2]
  proliferation by MTT reduction: dose-dependent decrease
BV2 microglia cells; 50% suppression of nitric oxide release from BV2 cells following LPS stimulation
  EC50: < 1000 nM
BV2 microglia cells; BV2 cells, LPS 100 ng/mL, read-out: IC50 for NO production/release
  IC50: 20 nM
MDA-MB-231 cells; 0.1 μM
  cellular proliferation by cell count: slight decrease
MDA-MB-231 cells; 24 hours
  cellular proliferation by cell count: inhibited
MDA-MB-231 cells; ≧1 μM
  cell count: loss of cells
Akt; 100 nM, both cell lines, significant at 1 μM
  Akt serine 473 phosphorylation: decreased
Akt; MB231 and U87 cells, EGF
  Akt activation: dose-dependent decrease
Akt; MB231 cells
  Akt phosphorylation in the presence of okadaic acid: did not inhibit
